Measurements from patent US9241891B2, “Personal care compositions comprising self-assembling peptides” (The Procter & Gamble Company, priority 2012, dated 2016).
Where two headings read alike, the source gives them in different places.

System: CLAUDIN 1
Conditions: human keratinocytes
Experimental: Cultures of human keratinocytes are treated with two concentrations of solutions, of the hexadecapeptide PuraMatrix™ (supplied by BD Science). The lower concentration, which is below the estimated critical aggregation concentration (CAC) at which the RADA-16I (SEQ ID NO:1) monomer self-assembles, while the higher concentration is above the CAC.

RADARADARADARADA [PuraMatrix ™]
CLDN1 LEVEL (High Concentration, above the CAC): 1.39
CLDN1 LEVEL (Low Concentration, below the estimated critical aggregation concentration (CAC)): 1.09
CLAUDIN 1 regulation (in words) (higher concentration, above the estimated critical aggregation concentration): significantly upregulates
